This data set has as its system CD-1 mouse liver cytosol, LC/MS substrate depletion half-life. Kind of data set: NCATS Mouse Liver Cytosol Stability Profiling. Conditions: at 1 µM; higher = more stable. On the procedure:
Assay submitter (PI): Pranav Shah Ph.D. NIH Center for Advancing Translational Sciences 9800 Medical Center Dr, Rockville MD, 20850 Over the last few decades, chemists have become skilled at designing compounds that avoid cytochrome P (CYP) 450 mediated metabolism. Typical screening assays are performed in liver microsomal fractions and it is possible to overlook the contribution of cytosolic enzymes until much later in the drug discovery process. Few data exist on cytosolic enzyme-mediated metabolism and no reliable tools are available to chemists to help design away from such liabilities. In this study, we screened 1450 compounds for liver cytosol-mediated metabolic stability and extracted transformation rules that might help medicinal chemists in optimizing compounds with these liabilities. […] Matched molecular pairs analysis was performed in conjunction with qualitative-structure activity relationship modeling to identify chemical structure transformations affecting cytosolic stability. The transformation rules were prospectively validated on the test set. In addition, selected rules were validated on a diverse chemical library and the resulting pairs were experimentally tested to confirm whether the identified transformations could be generalized. The validation results, comprising nearly 250 library compounds and corresponding half-life data, are made publicly available. The datasets were also used to generate in silico classification models, based on different molecular descriptors and machine learning methods, to predict cytosol-mediated liabilities. To the best of our knowledge, this is the first systematic in silico effort to address cytosolic enzyme-mediated liabilities (Shah 2020). Reference: Shah, P., Siramshetty, V.B., Zakharov, A.V. et al. Predicting liver cytosol stability of small molecules. J Cheminform 12, 21 (2020). https://doi.org/10.1186/s13321-020-00426-7
Compounds are classified as unstable (t 1/2 < 30 min) or stable (t 1/2 > 30 min). […] Reference: 1. Shah, P. et al. An Automated High-Throughput Metabolic Stability Assay Using an Integrated High-Resolution Accurate Mass Method and Automated Data Analysis Software. Drug Metab Dispos 44, 1653-1661 (2016). PMID 27417180

Molecules are shown by their SMILES.

The term half-life denotes how long it takes for the measured level to halve. As for `O=C1OCC2(CCN(Cc3ccn[nH]3)C2)N1CCN1CCOCC1` (centres undefined), the half-life was > 2 h.

`O=C(Nc1ccc(-c2nnc3n2CCCC3)cc1)c1ccc(Cl)cc1` returned a half-life of 1.95 h.

In the case of `CN1CCN(c2nc3c(c(=O)[nH]2)CCN(Cc2ccc(Cl)c(F)c2)CC3)CC1`, the half-life was > 2 h.

In turn, `COCC1CN(C(C)=O)CC12CCN(Cc1ccc(Cl)c(F)c1)CC2` (centres undefined) yielded a half-life of 1.36 h.

As to `COc1ccc(CN2C[C@H]3CN(Cc4ccc(Cl)cc4)CCN3C2=O)cc1`, the half-life was determined as 1.37 h.

Regarding `Cc1noc(-c2nc(-c3ccc(Cl)cc3)no2)n1`, the half-life amounted to 0.26 h.

As to `O=C(Nc1ccc(-c2nnc3n2CCCC3)cc1)c1ccn[nH]1`, the half-life is > 2 h.

Take `COc1cc(=O)n2c(c1C(=O)Nc1ccc(Cl)c(F)c1)CCCC2`: the half-life is 1.47 h.

As for `CCN1c2cc(C(=O)Nc3ccc(Cl)c(F)c3)ccc2C(=O)N2CCCCC21` (centres undefined), the half-life worked out at 0.412 h.

Consider `COCC1CN(C(C)=O)CC12CCN(Cc1ccc(Cl)cc1)CC2` (centres undefined), for which the half-life is > 2 h.

With `Cc1ccc2nc(CO[C@H]3CN(Cc4ccc(Cl)cc4)C[C@H]3F)[nH]c2c1`, the half-life was > 2 h.

With `CCOc1cc(=O)n2c(c1C(=O)Nc1ccc(Cl)cc1)CCCC2`, the half-life was 1.57 h.

`Cc1cccc(-c2noc([C@@H]3C[C@@H](O)CN3Cc3ccc(Cl)cc3)n2)c1` came in with a half-life of 0.394 h.

The compound `O=C(Nc1cccc(-c2nnc3n2CCCC3)c1)c1ccc(Cl)cc1` yielded a half-life of 0.941 h.

The compound `O=C1[C@H]2CN(Cc3ccc(Cl)c(F)c3)C[C@H]2C(=O)N1CCc1ccccc1` showed a half-life of 0.621 h.

Compound `CN1c2cc(C(=O)Nc3ccc(Cl)c(F)c3)ccc2C(=O)N2CCCCC21` (centres undefined) gave a half-life of 0.524 h.

On to `O=c1[nH]c(N2CCOCC2)nc2c1CCN(Cc1ccc(Cl)c(F)c1)CC2`, for which the half-life turned out to be 1.54 h.

Turning to `CN1CCN(c2nc3c(c(=O)[nH]2)CCN(Cc2ccc(Cl)cc2)CC3)CC1`, the half-life is > 2 h.

As to `O=C1[C@H]2CN(Cc3ccc(Cl)cc3)C[C@H]2C(=O)N1CCc1ccccc1`, the half-life is 0.792 h.

As to `CCN1c2cc(C(=O)Nc3ccc(Cl)c(F)c3)ccc2C(=O)N2CCCCCC21` (centres undefined), the half-life came to 0.904 h.

With `O=C1NC2(CCN(C(=O)c3ccc(Cl)cc3)CC2)CC1c1ccccc1` (centres undefined), the half-life is > 2 h.

On to `COc1cccc(C(=O)NCC2CCCN(Cc3ccn[nH]3)C2)c1OC` (centres undefined), for which the half-life is > 2 h.

`CN1c2cc(C(=O)Nc3ccc(Cl)c(F)c3)ccc2C(=O)N2CCCCCC21` (centres undefined) registered a half-life of 0.383 h.

Take `COCC1CN(Cc2ccc(Cl)c(F)c2)CC12CCNCC2` (centres undefined): the half-life was > 2 h.

Compound `CN1c2cc(C(=O)Nc3ccc(Cl)cc3)ccc2C(=O)N2CCCCC21` (centres undefined) came in with a half-life of 1.39 h.

Regarding `CN(Cc1cccnc1)c1nc2c(c(=O)[nH]1)CCN(Cc1ccc(Cl)cc1)CC2`, the half-life amounted to 1.24 h.

Take `CN(C1CCOCC1)C1CCN(C(=O)c2ccn[nH]2)CC1`: the half-life is > 2 h.

For `COc1cccc(C(=O)NCC2CCCN(Cc3ccc(Cl)cc3)C2)c1OC` (centres undefined), the half-life was > 2 h.

As to `CCN1c2cc(C(=O)Nc3ccc(Cl)cc3)ccc2C(=O)N2CCCCCC21` (centres undefined), the half-life turned out to be 0.935 h.

As to `COCC1CN(Cc2ccc(Cl)cc2)CC12CCNCC2` (centres undefined), the half-life was > 2 h.

With `O=C1OCC2(CCN(Cc3ccc(Cl)cc3)C2)N1CCN1CCOCC1` (centres undefined), the half-life was > 2 h.

As for `CN(C)c1nc2c(c(=O)[nH]1)CCN(Cc1ccc(Cl)cc1)CC2`, the half-life came out at 1.91 h.

The compound `O=C1NC2(CCN(C(=O)c3ccc(Cl)c(F)c3)CC2)CC1c1ccccc1` (centres undefined) gave a half-life of 1.43 h.

Turning to `O=C(Nc1cccc(-c2nnc3n2CCCC3)c1)c1ccn[nH]1`, the half-life was > 2 h.

Turning to `Cc1ccc(-c2ccc3nnc(CNC(=O)c4ccc(Cl)cc4)n3n2)cc1`, the half-life was > 2 h.

For `COc1cc(=O)n2c(c1C(=O)Nc1ccc(Cl)cc1)CCCC2`, the half-life was > 2 h.

Regarding `O=c1[nH]c(N2CCOCC2)nc2c1CCN(Cc1ccc(Cl)cc1)CC2`, the half-life was > 2 h.

`CCOc1cc(=O)n2c(c1C(=O)Nc1ccc(Cl)c(F)c1)CCCC2` had a half-life of 1.34 h.

`CN1c2cc(C(=O)Nc3ccc(Cl)cc3)ccc2C(=O)N2CCCCCC21` (centres undefined): the half-life came out at 1.06 h.

Compound `OCC1(CN2CCCC2)CCN(Cc2ccc(Cl)c(F)c2)CC1` yielded a half-life of 1.21 h.

`O=C1[C@H]2CN(Cc3ccc(Cl)c(F)c3)C[C@H]2C(=O)N1Cc1ccc2c(c1)OCO2` had a half-life of 0.921 h.

Consider `CN(C1CCOCC1)C1CCN(C(=O)c2ccc(Cl)cc2)CC1`, for which the half-life is > 2 h.

As for `CN(C)c1nc2c(c(=O)[nH]1)CCN(Cc1ccc(Cl)c(F)c1)CC2`, the half-life was > 2 h.

As for `CCN1c2cc(C(=O)Nc3ccc(Cl)cc3)ccc2C(=O)N2CCCCC21` (centres undefined), the half-life was 0.429 h.

In turn, `CN1C(=O)CO[C@H]2CN(Cc3ccc(Cl)cc3)C[C@H]21` displayed a half-life of 1.94 h.

The compound `O=C1[C@H]2CN(Cc3ccc(Cl)cc3)C[C@H]2C(=O)N1Cc1ccc2c(c1)OCO2` showed a half-life of 1.11 h.

For `Cn1c([C@H]2CCN(Cc3ccc(Cl)cc3)C2)nc2ccccc21`, the half-life is > 2 h.

Compound `FC(F)(F)c1ccc2nc([C@H]3CCN(Cc4ccc(Cl)cc4)C3)[nH]c2c1` registered a half-life of 0.945 h.

Regarding `OCC1(CN2CCCC2)CCN(Cc2ccc(Cl)cc2)CC1`, the half-life came to 0.908 h.

For the origin of these results see PubChem BioAssay AID1508604 (National Center for Advancing Translational Sciences (NCATS), 2020).
